Source: patent publication US10611797B2, “Peptide having anticancer activity, and pharmaceutical composition and dietary supplement composition for preventing and treating cancer, both of which contain same as active ingredient” (IUCF-HYU (INDUSTRY-UNIVERSITY COOPERATION FOUNDATION …, priority 2015, dated 2020)
Where two headings read alike, the source gives them in different places.

Assays:
MDA-MB-231 cell line = experiment: MTT assay of FITC-conjugated peptides in MDA-MB-231; format: cell-based, human; details: 0, 0.5, 1, 2, 3, 10 μM, 96 h
[1] = test system: breast cancer cell lines (MCF7, MDA-MB-231); experiment: MTT cell viability, breast cancer cell lines; format: cell-based, human; details: increasing concentrations
Method: (§1) Liver cancer cell lines (HepG2, Hep3B) were inoculated into 96-well plates at a density of 3000 cells/well, and then 50 μl of culture solution was added thereto. Cells were cultured at 37° C. and 5% CO2 for 1 h. […] Cells were cultured at 37° C. and 5% CO2 for 24, 48, 72, and 96 h. After completion of the culture, the remaining culture solution was removed from the well plates, the cultures were diluted with MTT solution (3-(4,5-dimethylthiazol-2-yl)-2,5-diphenyltetrazole bromide) to a final density of 500 μg/ml, and cells were cultured at 37° C. and 5% CO2 for 3 h. The remaining MTT solution was removed and 150 μl of dimethyl sulfoxide (DMSO) was added. The reaction was carried out at room temperature for 20 min. After completion of the reaction, absorbance was measured using a microplate reader.

[2] = test system: glioblastoma cell lines (U343, U87MG); experiment: MTT cell viability with Peptide 5-2D, glioblastoma cell lines; format: cell-based, human; details: increasing concentrations
Method: as §1

[3] = test system: colon cancer cell lines (HCT116, HT29); experiment: MTT cell viability with Peptide 5-2D, colon cancer cell lines; format: cell-based, human; details: increasing concentrations
Method: as §1

[4] = test system: 293T and HepG2 cell lines; experiment: MTT cell viability with Peptide 5-2D, 293T and HepG2; format: cell-based, human; details: increasing concentrations
Method: as §1

[5] = test system: human blood cancer cell lines (U937, Jurkat, HL60, HEL); experiment: MTT cell viability with Peptide 5-2D, human blood cancer cell lines; format: cell-based; details: increasing concentrations
Method: as §1

[6] = test system: BEAS2B and MCF10A normal epithelial cell lines
Method: as §1

[7] = test system: cancer cell lines (HepG2, Hep3B, 293T, MCF-7, MDA-MB-231, K562, HEL, HL60, U251, U373MG, U87MG); experiment: Microscopic observation of growth inhibition and apoptosis, cancer cell lines; format: cell-based, human; details: 2 μM, 48 h
Method: (§2) Liver cancer cell lines (HepG2, Hep3B), a human embryonic kidney cell line (293T), breast cancer cell lines (MCF-7, MDA-MB-231), blood tumor cell lines (K562, HEL, HL60), glioblastoma cell lines (U251, U373MG, U87MG), a mammary epithelial cell line (MCF10A), a lung epithelial cell line (BEAS2B), human mesenchymal stem cells (hMSCs), and mouse primary T cells (resting and activated T cells) were inoculated into 96-well plates at a density of 3,000 cells/well, supplemented with 50 μl of culture solution, and cultured at 37° C. and 5% CO2 for 1 h. […] After completion of the culture, cells were observed under an inverted phase contrast microscope and their morphological changes were imaged.

MCF10A cell line = experiment: Electron microscopy of cell morphology, MCF10A; details: 2 μM, 24 and 48 h
Method: 1.5×10^6 cells of MDA-MB-231 cell line and 5×10^5 cells of MCF10A cell line were inoculated into 100 mm dishes. […] After culture for 24 and 48 h, cells were collected. The culture solution was centrifuged and surface adherent cells were collected by trypsin treatment. The collected cells were washed once with physiological saline. The cell sediment was directly treated twice with 2.5% aqueous glutaraldehyde solution (each for 10 min). Samples for electron microscopy were prepared and imaged in accordance with general methods.

[8] = test system: human mesenchymal stem cells (hMSC); experiment: MTT cell viability, human mesenchymal stem cells; details: increasing concentrations
[9] = test system: BEAS2B and MCF10A normal epithelial cell lines; experiment: MTT cell viability / IC50, normal epithelial control cell lines
Method: as §1

[10] = test system: human embryonic stem cells (hESCs, H9); experiment: MTT cell viability, human embryonic stem cells co-cultured with MEFs; details: increasing concentrations; co-culture with MEFs
Description: MEF cells labeled with rhodamine were often used to distinguish them from hESC-derived cells.

[11] = test system: normal cell lines (MCF10A, BEAS2B, hMSCs, mouse primary T cells); experiment: Microscopic observation of growth inhibition and apoptosis, normal cell lines; details: 2 μM, 48 h
Method: as §2

CP2c [12] = target: T1, CP2c (Mus musculus, UniProt Q9ERA0); experiment: DNA immunoprecipitation (DIP) assay of CP2c-DNA binding; details: 0.2, 0.5, and 1 μg peptide; MEL nuclear extract; α-globin promoter probe
T1 construct: 5 μg of the nuclear extract and an [α-32p] dCTP-labeled DNA probe; endogenous in cells; host or cells: MEL (murine erythroid leukemia) cells, HMBA-differentiated, nuclear extract
T1 sequence (Q9ERA0 1-502): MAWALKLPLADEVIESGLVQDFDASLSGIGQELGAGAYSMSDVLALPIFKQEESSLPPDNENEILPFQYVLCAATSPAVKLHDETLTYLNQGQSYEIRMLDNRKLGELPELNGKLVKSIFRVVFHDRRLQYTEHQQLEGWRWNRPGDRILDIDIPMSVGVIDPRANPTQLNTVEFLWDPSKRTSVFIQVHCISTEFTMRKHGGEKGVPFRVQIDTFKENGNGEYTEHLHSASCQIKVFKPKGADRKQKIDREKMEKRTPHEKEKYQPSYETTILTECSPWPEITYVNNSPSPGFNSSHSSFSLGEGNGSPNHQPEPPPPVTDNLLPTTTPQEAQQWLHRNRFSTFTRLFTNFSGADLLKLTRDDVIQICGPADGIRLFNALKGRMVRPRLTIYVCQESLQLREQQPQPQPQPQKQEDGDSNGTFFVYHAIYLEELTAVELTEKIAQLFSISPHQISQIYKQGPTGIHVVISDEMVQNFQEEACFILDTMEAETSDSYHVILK
Method: To analyze whether the five peptides identified in Example 1.1 bind to CP2c in cells to affect the ability of CP2c to bind to DNA, DNA immunoprecipitation (DIP) assay was performed as disclosed in another preceding research conducted by the present inventors (Kim et al., A DNA immunoprecipitation assay used in quantitative detection of in vitro DNA-protein complex binding, Analytical Biochemistry. 2013; 441: 147-151).
In summary, the differentiation of a murine erythroid leukemia (MEL) cell line was induced by treatment with 5 mM hexamethylene bisacetamide (HMBA) and, on day 2 after differentiation, a cellular nuclear extract was separated. […]
Subsequently, 5 μg of the nuclear extract and an [α-32p] dCTP-labeled DNA probe (a sequence corresponding to the common CP2c binding site present in mouse α-globin promoter and between −156 and −124 in the start codon of the α-globin gene, see the paper of Kim et al. for details of the sequence) were allowed to react with a binding buffer (4% glycerol, 10 mM Tris-HCl, 1 mM DTT, 1 mM EDTA, and 0.1% NP-40) for 15 min, and gradually increasing amounts (0.2, 0.5, and 1 μg) of the identified CP2c binding peptides (Peptide 5, Peptide 8, Peptide 13, Peptide 21, and Peptide 31) were added thereto. […] The CP2c protein was removed from the DNA probe and the remaining amount of the DNA probe was measured using a scintillation counter. […]

CP2c [13] = experiment: Direct ELISA of GST-fusion mutant CP2c proteins binding to peptide; details: 19 Ala mutants of CP2c 306-396 region; detected with biotin-tagged Peptide 5-2CB
Description: To support this assumption, a CP2c protein region with which Peptide 5-2C interacts and amino acids in the region directly binding to Peptide 5-2C need to be identified. Thus, an attempt was made to obtain mutant CP2c proteins in which polar amino acids present in the CP2c region binding with Peptide 5 shown in FIG. 1 were substituted with Ala and analyze the binding of the mutant CP2c proteins with Peptide 5-2C by enzyme-linked immunosorbent assay (ELISA). To facilitate this analysis, Peptide 5-2CB was synthesized in which biotin tag is bonded to the C-terminal Pro residue of Peptide 5-2C. To confirm whether Peptide 5-2CB induces cancer cell-specific growth interruption and apoptosis, like Peptide 5-2C, MTT assay was conducted on two different batches of Peptide 5-2CB in MDA-MB-231 cell line and MCF7 cell line by the same method as in Example 5.1. IC50 values were also calculated from the results of MTT assay. To obtain 19 mutant CP2c proteins in which polar amino acids present in the CP2c region binding with Peptide 5-2C were substituted with Ala, oligonucleotides having sequences encoding the corresponding mutant amino acids were synthesized and site-directed mutagenesis was carried out. The base sequences encoding the mutant CP2c genes were cloned into the pGEX4 vector and mutant GST-fusion CP2c proteins were purified using beads bound with antibody against GST-tag. […]

FITC-iRGD: FITC fluorescently labeled iRGD peptide (CRGDKGPDC)
cell growth (MTT) in MDA-MB-231 (MDA-MB-231 cell line): only the FITC-conjugated Peptide 5-2C inhibited cell growth

dNP2 peptide sequence (KIKKVKKKGRKGSKIKKVKKKGRKGG) linked to the N-terminal Asn residue of Peptide 5-2 [Peptide 5-2D]
relative viability (MTT), breast cancer cell lines, compared with Peptide 5-2C [1]: inhibited the growth of the breast cancer cell lines and efficiently induced apoptosis, similarly to Peptide 5-2C | relative viability (MTT), U343 and U87MG, compared with Peptide 5-2C [2]: inhibited the growth of the glioblastoma cell lines and efficiently induced apoptosis, similarly to Peptide 5-2C | relative viability (MTT), HCT116 and HT29, compared with Peptide 5-2C [3]: inhibited the growth of the glioblastoma cell lines and efficiently induced apoptosis, similarly to Peptide 5-2C | relative viability (MTT), 293T and HepG2, compared with Peptide 5-2C [4]: inhibited the growth of the human embryonic kidney cancer cell line and liver cancer cell line and efficiently induced apoptosis, similarly to Peptide 5-2C | relative viability (MTT), U937, Jurkat, HL60, HEL, compared with Peptide 5-2C [5]: inhibited the growth of the human embryonic kidney cancer cell line and the liver cancer cell line and efficiently induced apoptosis, similarly to Peptide 5-2C | growth inhibition and apoptosis induction of normal control cell lines (IC50 calculation) [6]: did not substantially affect the growth inhibition of the normal control cell lines and the induction of apoptosis | relative viability (MTT), MCF10A and BEAS2B, compared with Peptide 5-2C [6]: did not affect the growth of the mammary epithelial cell line and the lung epithelial cell line and apoptosis, similarly to Peptide 5-2C

CCOc1ccccc1C1CC(=O)Nc2cc3c(cc21)OCO3 (centres unmarked) [FQI1, Factor Quinolinone Inhibitor 1]
growth inhibition and apoptosis induction of cancer cell lines (microscopy) [7]: inhibited the growth of the normal cell lines as well as the cancer cell lines in a concentration-dependent manner and induced apoptosis | intracellular structural abnormalities in MCF10A (electron microscopy) (MCF10A cell line): considerable nuclear disruption was observed at 48 h | cytotoxicity (MTT) in hMSC [8]: concentration-dependent cytotoxicity | growth inhibition and apoptosis induction of normal control cell lines (IC50 calculation) ([9]; 48 h, MTT): inhibited cell growth and induced apoptosis | cytotoxicity (MTT) in MCF10A and BEAS2B ([9]; increasing concentrations up to 10 μM): concentration-dependent cytotoxicity | cytotoxicity (MTT) in hESCs [10]: concentration-dependent cytotoxicity | effect on normal cell lines (microscopy) [11]: inhibited the growth of the normal cell lines

NYPQRP [Peptide 5-2]
inhibition of CP2c-DNA binding (DIP assay) (CP2c [12]): specifically inhibited the binding between CP2c and DNA | CP2c amino acids important for peptide binding (CP2c [13]): E332, R339, R341 and R347 amino acid are important for binding to Peptide 5-2
